The record followed here is patent publication US11407738B2 (Achillion Pharmaceuticals, Inc., priority 2015, dated 2022).

Molecules are shown by their SMILES.

Sequence of Human Factor D (P00746 26-253): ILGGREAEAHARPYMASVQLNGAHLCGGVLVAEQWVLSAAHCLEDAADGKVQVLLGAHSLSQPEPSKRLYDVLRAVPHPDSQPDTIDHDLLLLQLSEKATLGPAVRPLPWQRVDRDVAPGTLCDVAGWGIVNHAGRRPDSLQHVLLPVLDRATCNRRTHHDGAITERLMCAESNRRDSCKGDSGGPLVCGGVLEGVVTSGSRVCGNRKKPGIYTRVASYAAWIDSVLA

The first assay concerns the target Human Factor D (Homo sapiens (Human), UniProt P00746). The assay can be described thus: Human Factor D assay. The format is biochemical. The conditions noted are these: Table 3; Factor D inhibition, substrate Z-L-Lys-SBzl. How it is done:
Human Factor D (purified from human serum, Complement Technology, Inc.) at 80 nM final concentration is incubated with test compound at various concentrations for 5 min at room temperature in 50 mM Tris, 1M NaCl, pH 7.5. A synthetic substrate Z-L-Lys-SBzl and DTNB (Ellman's reagent) are added to final concentrations of 100 μM each. […] IC50 values are calculated by nonlinear regression of complement Factor D reaction rates as a function of test compound concentration.
`Cc1ncc(-c2ccc3c(c2)c(C(N)=S)nn3CC(=O)N2C[C@H](F)C[C@H]2C(=O)Nc2cccc(Br)n2)cn1` [Compound 527, (2S,4R)—N-(6-Bromopyridin-2-yl)-1-(2-(3-carbamothioyl-5-(2-methylpyrimidin-5-yl)-1H-indazol-1-yl)acetyl)-4-fluoropyrrolidine-2-carboxamide] displayed a 50% inhibitory concentration (IC50) of under 1000 nM.

The molecule `CC(=O)c1nn(CC(=O)N2C[C@H](F)C[C@H]2C(=O)Nc2cccc(-c3ccc4c(c3)OC(F)(F)O4)c2F)c2ccc(-c3cnc(C)nc3)cc12` [Compound 528, (2S,4R)-1-(2-(3-Acetyl-5-(2-methylpyrimidin-5-yl)-1H-indazol-1-yl)acetyl)-N-(3-(2,2-difluorobenzo[d][1,3]dioxol-5-yl)-2-fluorophenyl)-4-fluoropyrrolidine-2-carboxamide] gave an IC50 of under 1000 nM. Regarding `CNS(=O)(=O)c1ccc(Cl)c(-c2cccc(NC(=O)[C@@H]3C[C@@H](F)CN3C(=O)Cn3nc(C(C)=O)c4cc(-c5cnc(C)nc5)ccc43)c2F)c1` [Compound 529, (2S,4R)-1-(2-(3-acetyl-5-(2-methylpyrimidin-5-yl)-1H-indazol-1-yl)acetyl)-N-(2′-chloro-2-fluoro-5′-(N-methylsulfamoyl)bi-phenyl-3-yl)-4-fluoropyrrolidine-2-carboxamide], the IC50 was under 1000 nM. `CC(=O)c1nn(CC(=O)N2C[C@H](F)C[C@H]2C(=O)Nc2cccc(-c3ccccc3Cl)c2F)c2ccc(N3CCn4c(nnc4C(F)(F)F)C3)cc12` [Compound 531, (2S,4R)-1-(2-(3-acetyl-5-(3-(trifluoromethyl)-5,6-dihydro-[1,2,4]triazolo[4,3-a]pyrazin-7(8H)-yl)-1H-indazol-1-yl)acetyl)-N-(2′-chloro-2-fluorobiphenyl-3-yl)-4-fluoropyrrolidine-2-carboxamide] yielded an IC50 of under 1000 nM.

The same assay, now with this note: Table 4; Factor D inhibition, substrate Z-L-Lys-SBzl.
`CC(=O)c1nn(CC(=O)N2C[C@H](F)C[C@H]2C(=O)NC2CCN(C(=O)c3cc(Cl)c[nH]3)CC2)c2ccc(-c3cnc(C)nc3)cc12` [Compound 532, (2S,4R)-1-(2-(3-acetyl-5-(2-methylpyrimidin-5-yl)-1H-indazol-1-yl)acetyl)-N-(1-(4-chloro-1H-pyrrole-2-carbonyl)piperidin-4-yl)-4-fluoropyrrolidine-2-carboxamide] displayed an IC50 of under 1000 nM. The same measure, in the same setting: the value for `COCCN(C)CCN1CC(NC(=O)[C@@H]2C[C@@H](F)CN2C(=O)Cn2nc(C(C)=O)c3cc(-c4cnc(C)nc4)ccc32)CC1=O` (stereo partly drawn) [Compound 533, (2S,4R)-1-(2-(3-acetyl-5-(2-methylpyrimidin-5-yl)-1H-indazol-1-yl)acetyl)-4-fluoro-N-(1-(2-((2-methoxyethyl)(meth-yl)amino)ethyl)-5-oxopyrrolidine-3-yl)pyrrolidine-2-carboxamide] was over 10000 nM. In turn, `C=CCCCCCCCCCNc1ncc(-c2ccc3c(c2)c(C(C)=O)nn3CC(=O)O)cn1` [Compound 535, 2-(3-acetyl-5-(2-(undec-10-en-1-ylamino)pyrimidin-5-yl)-1H-indazol-1-yl)acetic acid] returned an IC50 of over 10000 nM. On the same count and under the same terms, as for `CC(=O)c1nn(CC(=O)NCc2ccccc2CC(=O)O)c2ccc(-c3cnc(C)nc3)cc12` [Compound 536, 2-(2-((2-(3-acetyl-5-(2-methylpyrimidin-5-yl)-1H-indazol-1-yl)acetamido)meth-yl)phenyl)acetic acid], the figure is over 10000 nM; as for `COC(=O)Cc1ccccc1CNC(=O)Cn1nc(C(C)=O)c2cc(-c3cnc(C)nc3)ccc21` [Compound 537, methyl 2-(2-((2-(3-acetyl-5-(2-methylpyrimidin-5-yl)-1H-indazol-1-yl)acetamido)meth-yl)phenyl)acetate], over 10000 nM. Turning to `CC(=O)c1nn(CC(=O)N2C[C@H](F)C[C@H]2C(=O)Nc2cccc(-c3cc(F)ccc3S(C)(=O)=O)c2F)c2ccc(-c3cnc(C)nc3)cc12` [Compound 539, (2S,4R)-1-(2-(3-acetyl-5-(2-methylpyrimidin-5-yl)-1H-indazol-1-yl)acetyl)-N-(2,5′-difluoro-2′-(methylsulfonyl)-[1,1′-biphenyl]-3-yl)-4-fluoropyrrolidine-2-carboxamide], the IC50 is under 1000 nM.
